# Experimental data taken from patent publication US10770169B2, “Method of providing a treatment to a subject based on a dynamic pathway map” (THE REGENTS OF THE UNIVERSITY OF CALIFORNIA, priority 2010, dated 2020).
# Like-named read-outs stand apart in the source and are kept apart here.
# How the values were obtained:
# [1] = test system: luminal, basal, claudin-low and ERBB2AMP breast cancer cell lines; assay: Associations of clinically relevant subtypes and response (non-parametric ANOVA or t-test on GI50 ranks); assay type: cell-based, human; details: Table 6; most sensitive subtype, FDR p<0.20
# Source text: A central premise of this study is that associations between responses and molecular subtypes observed in preclinical cell line analyses will be recapitulated in the clinic in instances where the predictive molecular features in the cell lines are mirrored in human tumors. We established response-subtype associations by using non-parametric ANOVAs to compare […] values across transcriptional and genomics subtypes.
# Differences between GI50s of the groups were compared with a non-parametric ANOVA or t-test, as appropriate, on the ranks. We combined the p-values for the three sets of tests and used false discovery rate (FDR) to correct for multiple testing. For the three-sample test, we performed a post-hoc analysis on the compounds with a significant class effect by comparing each group to all others to determine which group was most sensitive. The p-values for the post-hoc test were FDR-corrected together. In all cases, FDR p<0.20 was deemed significant. […] Analyses were performed in R.
# [2] = test system: panel of 55 breast cancer cell lines; assay: Cell growth inhibition assay (Cell Titer Glo, 72 h, 9 doses; GI50, TGI, LC50); assay type: cell-based, human; details: Homo sapiens, read-out: GI50 (converted)
compound,measurement,setting,value
CS(=O)(=O)CCNCc1ccc(-c2ccc3ncnc(Nc4ccc(OCc5cccc(F)c5)c(Cl)c4)c3c2)o1 [Lapatinib],Subtype specificity,[1],Luminal/ERBB2AMP
same,GI50,"[2]; AU565, cell line AU565, censored GI50 values",0.398 µM
same,GI50,"[2]; AU565, cell line AU565",0.398 µM
same,GI50,"[2]; BT-20, cell line BT20",16.6 µM
same,GI50,"[2]; BT-474, cell line BT474, censored GI50 values",0.398 µM
same,GI50,"[2]; BT-474, cell line BT474",0.398 µM
same,GI50,"[2]; BT-483, cell line BT483",16.6 µM
same,GI50,"[2]; BT-549, cell line BT549",16.6 µM
same,GI50,"[2]; CAMA-1, cell line CAMA1",16.6 µM
same,GI50,"[2]; HCC38, cell line HCC38",16.6 µM
same,GI50,"[2]; HCC70, cell line HCC70",11 µM
same,GI50,"[2]; HCC202, cell line HCC202, censored GI50 values",0.759 µM
same,GI50,"[2]; HCC202, cell line HCC202",0.759 µM
same,GI50,"[2]; HCC1143, cell line HCC1143",16.6 µM
same,GI50,"[2]; HCC1187, cell line HCC1187",16.6 µM
same,GI50,"[2]; HCC1395, cell line HCC1395",16.6 µM
same,GI50,"[2]; HCC1419, cell line HCC1419, censored GI50 values",0.269 µM
same,GI50,"[2]; HCC1419, cell line HCC1419",0.269 µM
same,GI50,"[2]; HCC1428, cell line HCC1428",16.6 µM
same,GI50,"[2]; HCC1500, cell line HCC1500",16.6 µM
same,GI50,"[2]; HCC1806, cell line HCC1806",16.6 µM
same,GI50,"[2]; HCC1937, cell line HCC1937",16.6 µM
same,GI50,"[2]; HCC1954, cell line HCC1954, censored GI50 values",2.75 µM
same,GI50,"[2]; HCC1954, cell line HCC1954",2.75 µM
same,GI50,"[2]; MCF7, cell line MCF7",16.6 µM
same,GI50,"[2]; MDA-MB-157, cell line MDAMB157",16.6 µM
same,GI50,"[2]; MDA-MB-175-VII, cell line MDAMB175VII, censored GI50 values",0.933 µM
same,GI50,"[2]; MDA-MB-231, cell line MDAMB231",16.6 µM
same,GI50,"[2]; MDA-MB-361, cell line MDAMB361, censored GI50 values",8.91 µM
same,GI50,"[2]; MDA-MB-361, cell line MDAMB361",8.91 µM
same,GI50,"[2]; MDA-MB-436, cell line MDAMB436",16.6 µM
same,GI50,"[2]; MDA-MB-453, cell line MDAMB453, censored GI50 values",8.91 µM
same,GI50,"[2]; MDA-MB-453, cell line MDAMB453",8.91 µM
same,GI50,"[2]; MDA-MB-468, cell line MDAMB468",16.6 µM
same,GI50,"[2]; SK-BR-3, cell line SKBR3, censored GI50 values",0.513 µM
same,GI50,"[2]; SK-BR-3, cell line SKBR3",0.513 µM
same,GI50,"[2]; SUM52PE, cell line SUM52PE",16.6 µM
same,GI50,"[2]; SUM225CWN, cell line SUM225CWN, censored GI50 values",0.692 µM
same,GI50,"[2]; SUM225CWN, cell line SUM225CWN",0.692 µM
same,GI50,"[2]; T47D, cell line T47D",16.6 µM
same,GI50,"[2]; UACC-812, cell line UACC812, censored GI50 values",0.457 µM
same,GI50,"[2]; UACC-812, cell line UACC812",0.457 µM
same,GI50,"[2]; UACC-893, cell line UACC893, censored GI50 values",1.82 µM
same,GI50,"[2]; UACC-893, cell line UACC893",1.82 µM
same,GI50,"[2]; ZR-75-1, cell line ZR751",16.6 µM
same,GI50,"[2]; ZR-75B, cell line ZR75B",16.6 µM
same,GI50,[2]; cell line 600MPE,16.6 µM
same,GI50,"[2]; cell line HCC2185, censored GI50 values",3.8 µM
same,GI50,[2]; cell line HCC2185,3.8 µM
same,GI50,[2]; cell line HCC3153,16.6 µM
same,GI50,[2]; cell line MDAMB175V,0.933 µM
same,GI50,[2]; cell line SUM1315MO,15.5 µM
